Experimental data: publication PMC5723097, “Molecular and functional characterization of ferredoxin NADP(H) oxidoreductase from Gracilaria chilensis and its complex with ferredoxin” (Biological Research, 2017)

Tested on: T1, FNR^PBS (ferredoxin NADP(H) oxidoreductase)
T1 construct: gene petH; native enzyme in phycobilisome-enriched fraction; N-terminal peptides MAAVDKKK (1-8), VPINIFRPK (9-17); not recombinant
Assay: diaphorase assay, NADPH oxidation at […] nm, Michaelis-Menten fit
Type: biochemical, Gracilaria chilensis
Details: 0.15 mM DCPIP as acceptor, 50 mM Tris-HCl pH 8, 1 mM Na2EDTA; phycobilisome-enriched fraction, high salt

- Km: 12.5 ± 1.8 µM
SMILES: NC(=O)C1=CN([C@@H]2O[C@H](COP(=O)(O)OP(=O)(O)OC[C@H]3O[C@@H](n4cnc5c(N)ncnc54)[C@H](OP(=O)(O)O)[C@@H]3O)[C@@H](O)[C@H]2O)C=CC1 [NADPH]
